Key:
Assay in all cases: relative viability (nuclei count vs DMSO), 5 days (fraction); higher = more cells survive
BEN = system: BEN
How it was run: (§1)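 Relative viability was taken as the ratio of nuclei in treated wells to nuclei in vehicle wells. Lung cancer cell lines in 1536-well plates received compounds by pin tool one day after seeding, either one drug alone or a fixed anchor-drug dose plus five library-drug doses (not always all listed) in √10 steps. Nuclei were counted on 4× images after 5 days of treatment, and values are medians of duplicate plates.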

CAL-12T = system: CAL-12T
How it was run: as §1

EKVX = system: EKVX
How it was run: as §1

HCC-44 = system: HCC-44
How it was run: as §1

LOU-NH91 = system: LOU-NH91
How it was run: as §1

LU99A = system: LU99A
How it was run: as §1

NCI-H1355 = system: NCI-H1355
How it was run: as §1

NCI-H1395 = system: NCI-H1395
How it was run: as §1

NCI-H1437 = system: NCI-H1437
How it was run: as §1

NCI-H1563 = system: NCI-H1563
How it was run: as §1

NCI-H1650 = system: NCI-H1650
How it was run: as §1

NCI-H1651 = system: NCI-H1651
How it was run: as §1

NCI-H1734 = system: NCI-H1734
How it was run: as §1

NCI-H1755 = system: NCI-H1755
How it was run: as §1

NCI-H1975 = system: NCI-H1975
How it was run: as §1

NCI-H2023 = system: NCI-H2023
How it was run: as §1

NCI-H2085 = system: NCI-H2085
How it was run: as §1

NCI-H2342 = system: NCI-H2342
How it was run: as §1

NCI-H358 = system: NCI-H358
How it was run: as §1

NCI-H441 = system: NCI-H441
How it was run: as §1

NCI-H460 = system: NCI-H460
How it was run: as §1

NCI-H838 = system: NCI-H838
How it was run: as §1

O=C(O)c1ccc(-c2c[nH]c3ncc(-c4ccccc4)cc23)cc1C1CCCC1 + CCNC(=O)c1noc(-c2cc(C(C)C)c(O)cc2O)c1-c1ccc(CN2CCOCC2)cc1 [Luminespib] (partner 0.01 µM)
relative viability (BEN; first compound 0.04 µM): 0.569 | relative viability (BEN; first compound 0.1265 µM): 0.32 | relative viability (BEN; first compound 0.4 µM): 0.284 | relative viability (BEN; first compound 1.265 µM): 0.306 | relative viability (CAL-12T; first compound 0.04 µM): 0.57 | relative viability (CAL-12T; first compound 0.1265 µM): 0.354 | relative viability (CAL-12T; first compound 0.4 µM): 0.519 | relative viability (CAL-12T; first compound 1.265 µM): 0.268 | relative viability (EKVX; first compound 0.04 µM): 0.885 | relative viability (EKVX; first compound 0.1265 µM): 0.92 | relative viability (EKVX; first compound 0.4 µM): 0.931 | relative viability (EKVX; first compound 1.265 µM): 0.615 | relative viability (HCC-44; first compound 0.04 µM): 1.08 | relative viability (HCC-44; first compound 0.1265 µM): 1.44 | relative viability (HCC-44; first compound 0.4 µM): 0.868 | relative viability (HCC-44; first compound 1.265 µM): 0.448 | relative viability (LOU-NH91; first compound 0.04 µM): 0.323 | relative viability (LOU-NH91; first compound 0.1265 µM): 0.33 | relative viability (LOU-NH91; first compound 0.4 µM): 0.278 | relative viability (LOU-NH91; first compound 1.265 µM): 0.472 | relative viability (LU99A; first compound 0.04 µM): 0.259 | relative viability (LU99A; first compound 0.1265 µM): 0.254 | relative viability (LU99A; first compound 0.4 µM): 0.244 | relative viability (LU99A; first compound 1.265 µM): 0.273 | relative viability (NCI-H1355; first compound 0.04 µM): 0.692 | relative viability (NCI-H1355; first compound 0.1265 µM): 0.622 | relative viability (NCI-H1355; first compound 0.4 µM): 0.464 | relative viability (NCI-H1355; first compound 1.265 µM): 0.384 | relative viability (NCI-H1395; first compound 0.04 µM): 0.726 | relative viability (NCI-H1395; first compound 0.1265 µM): 0.636 | relative viability (NCI-H1395; first compound 0.4 µM): 0.534 | relative viability (NCI-H1395; first compound 1.265 µM): 0.606 | relative viability (NCI-H1437; first compound 0.04 µM): 1.09 | relative viability (NCI-H1437; first compound 0.1265 µM): 1.07 | relative viability (NCI-H1437; first compound 0.4 µM): 0.925 | relative viability (NCI-H1437; first compound 1.265 µM): 0.603 | relative viability (NCI-H1563; first compound 0.04 µM): 0.489 | relative viability (NCI-H1563; first compound 0.1265 µM): 0.599 | relative viability (NCI-H1563; first compound 0.4 µM): 0.42 | relative viability (NCI-H1563; first compound 1.265 µM): 0.508 | relative viability (NCI-H1650; first compound 0.04 µM): 0.194 | relative viability (NCI-H1650; first compound 0.1265 µM): 0.17 | relative viability (NCI-H1650; first compound 0.4 µM): 0.196 | relative viability (NCI-H1650; first compound 1.265 µM): 0.197 | relative viability (NCI-H1651; first compound 0.04 µM): 0.927 | relative viability (NCI-H1651; first compound 0.1265 µM): 0.863 | relative viability (NCI-H1651; first compound 0.4 µM): 0.6 | relative viability (NCI-H1651; first compound 1.265 µM): 0.638 | relative viability (NCI-H1734; first compound 0.04 µM): 0.186 | relative viability (NCI-H1734; first compound 0.1265 µM): 0.194 | relative viability (NCI-H1734; first compound 0.4 µM): 0.224 | relative viability (NCI-H1734; first compound 1.265 µM): 0.202 | relative viability (NCI-H1755; first compound 0.04 µM): 0.375 | relative viability (NCI-H1755; first compound 0.1265 µM): 0.644 | relative viability (NCI-H1755; first compound 0.4 µM): 0.695 | relative viability (NCI-H1755; first compound 1.265 µM): 0.574 | relative viability (NCI-H1975; first compound 0.04 µM): 0.131 | relative viability (NCI-H1975; first compound 0.1265 µM): 0.302 | relative viability (NCI-H1975; first compound 0.4 µM): 0.199 | relative viability (NCI-H1975; first compound 1.265 µM): 0.338 | relative viability (NCI-H2023; first compound 0.04 µM): 0.694 | relative viability (NCI-H2023; first compound 0.1265 µM): 1.01 | relative viability (NCI-H2023; first compound 0.4 µM): 0.75 | relative viability (NCI-H2023; first compound 1.265 µM): 0.34 | relative viability (NCI-H2085; first compound 0.04 µM): 0.441 | relative viability (NCI-H2085; first compound 0.1265 µM): 0.422 | relative viability (NCI-H2085; first compound 0.4 µM): 0.488 | relative viability (NCI-H2085; first compound 1.265 µM): 0.31 | relative viability (NCI-H2342; first compound 0.04 µM): 0.773 | relative viability (NCI-H2342; first compound 0.1265 µM): 0.715 | relative viability (NCI-H2342; first compound 0.4 µM): 0.758 | relative viability (NCI-H2342; first compound 1.265 µM): 0.678 | relative viability (NCI-H358; first compound 0.04 µM): 0.45 | relative viability (NCI-H358; first compound 0.1265 µM): 0.192 | relative viability (NCI-H358; first compound 0.4 µM): 0.249 | relative viability (NCI-H358; first compound 1.265 µM): 0.165 | relative viability (NCI-H441; first compound 0.04 µM): 0.332 | relative viability (NCI-H441; first compound 0.1265 µM): 0.431 | relative viability (NCI-H441; first compound 0.4 µM): 0.266 | relative viability (NCI-H441; first compound 1.265 µM): 0.298 | relative viability (NCI-H460; first compound 0.04 µM): 0.0285 | relative viability (NCI-H460; first compound 0.1265 µM): 0.0329 | relative viability (NCI-H460; first compound 0.4 µM): 0.0398 | relative viability (NCI-H460; first compound 1.265 µM): 0.0257 | relative viability (NCI-H838; first compound 0.04 µM): 0.315 | relative viability (NCI-H838; first compound 0.1265 µM): 0.266 | relative viability (NCI-H838; first compound 0.4 µM): 0.26 | relative viability (NCI-H838; first compound 1.265 µM): 0.287
